Experimental data as given in patent US5922742A, “Pyridinyl-2-cyclopenten-1-ones as selective cyclooxygenase-2 inhibitors” (Merck Frosst Canada, priority 1997, dated 1999).

How the values were obtained:
[1] = molecular target: T1, Cox-2 (Homo sapiens, UniProt P35354); assay: Human whole blood assay, COX-2 (LPS-induced PGE2 production); assay type: cell-based; details: for Selectivity Ratio: Cox-1 U937 IC50 / Cox-2 Whole Blood IC50; for IC50: human whole blood, LPS-induced PGE2, 24 hours at 37° C
T1 construct: active only after incubation of human whole blood with LPS, which induces COX-2; endogenous in cells; host or cells: fresh heparinized human whole blood from volunteers, incubated with LPS
T1 sequence (P35354 18-604): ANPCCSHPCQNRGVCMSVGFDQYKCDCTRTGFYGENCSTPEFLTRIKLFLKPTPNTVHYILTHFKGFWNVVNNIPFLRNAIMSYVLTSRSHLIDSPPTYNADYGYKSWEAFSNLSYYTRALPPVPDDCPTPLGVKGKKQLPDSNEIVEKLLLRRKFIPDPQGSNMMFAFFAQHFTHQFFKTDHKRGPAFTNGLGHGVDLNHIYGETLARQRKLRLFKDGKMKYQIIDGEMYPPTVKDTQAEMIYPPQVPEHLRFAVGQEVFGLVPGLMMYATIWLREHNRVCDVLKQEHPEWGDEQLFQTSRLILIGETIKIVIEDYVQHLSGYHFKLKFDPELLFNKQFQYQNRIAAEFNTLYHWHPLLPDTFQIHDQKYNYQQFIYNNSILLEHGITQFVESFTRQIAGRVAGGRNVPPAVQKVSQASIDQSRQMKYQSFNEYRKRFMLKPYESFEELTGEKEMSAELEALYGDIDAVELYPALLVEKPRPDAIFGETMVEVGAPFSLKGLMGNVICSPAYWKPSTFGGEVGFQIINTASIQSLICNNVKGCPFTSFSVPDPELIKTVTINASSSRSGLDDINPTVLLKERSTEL
Source text: As well, platelets in whole blood contain a large amount of the COX-1 enzyme. Immediately following blood clotting, platelets are activated through a thrombin-mediated mechanism. This reaction results in the production of thromboxane B2 (TxB2) via activation of COX-1. Thus, the effect of test compounds on TxB2 levels following blood clotting can be examined and used as an index for COX-1 activity. Therefore, the degree of selectivity by the test compound can be determined by measuring the levels of PGE2 after LPS induction (COX-2) and TxB2 following blood clotting (COX-1) in the same assay.
A. COX-2 (LPS-induced PGE2 production)
Fresh blood is collected in heparinized tubes by venipuncture from both male and female volunteers. The subjects have no apparent inflammatory conditions and have not taken any NSAIDs for at least 7 days prior to blood collection. Plasma is immediately obtained from a 2 mL blood aliquot to use as blank (basal levels of PGE2). The remaining blood is incubated with LPS (100 μg/ml final concentration, Sigma Chem, #L-2630 from E. coli; diluted in 0.1% BSA (Phosphate buffered saline) for 5 minutes at room temperature. Five hundred μL aliquots of blood are incubated with either 2μL of vehicle (DMSO) or 2 μL of a test compound at final concentrations varying from […] to 30μM for 24 hours at 37° C. At the end of the incubation, the blood is centrifuged at 12,000×g for 5 minutes to obtain plasma. A 100μL aliquot of plasma is mixed with 400 μL of methanol for protein precipitation. The supernatant is obtained and is assayed for PGE2 using a radioimmunoassay kit (Amersham, RPA#530) after conversion of PGE2 to its methyl oximate derivative according to the manufacturer's procedure. […]

[2] = molecular target: T2, Cox-1 (Homo sapiens, UniProt P23219); assay: Cox-1 U937 (PGE2 synthesis); assay type: cell-based
T2 construct: human U-937 cells (which specifically express COX-1); endogenous in cells; host or cells: human U-937 cells (whole cells or their microsomes)
T2 sequence (P23219 24-599): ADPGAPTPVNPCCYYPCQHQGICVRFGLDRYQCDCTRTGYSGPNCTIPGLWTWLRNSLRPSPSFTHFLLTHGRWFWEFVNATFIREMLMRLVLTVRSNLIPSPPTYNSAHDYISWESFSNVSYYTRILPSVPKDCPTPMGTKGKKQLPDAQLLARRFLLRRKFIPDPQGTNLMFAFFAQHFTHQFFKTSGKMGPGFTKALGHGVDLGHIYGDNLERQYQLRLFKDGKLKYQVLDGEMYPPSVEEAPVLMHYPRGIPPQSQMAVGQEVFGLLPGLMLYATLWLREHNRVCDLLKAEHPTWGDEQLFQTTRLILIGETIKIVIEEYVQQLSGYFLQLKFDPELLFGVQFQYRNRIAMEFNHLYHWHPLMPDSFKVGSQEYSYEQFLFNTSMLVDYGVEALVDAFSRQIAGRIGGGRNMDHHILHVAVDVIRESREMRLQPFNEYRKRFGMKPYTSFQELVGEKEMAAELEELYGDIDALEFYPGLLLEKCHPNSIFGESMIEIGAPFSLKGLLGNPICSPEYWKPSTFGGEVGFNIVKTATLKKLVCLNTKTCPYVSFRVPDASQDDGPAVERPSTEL
Method: Compounds are tested as inhibitors of cyclooxygenase activity in whole cell cyclooxygenase assays. Both of these assays measure prostaglandin E2 synthesis in response to AA, using a radioimmunoassay. Cells used for these assays are human osteosarcoma 143 cells (which specifically express COX-2) and human U-937 cells (which specifically express COX-1). […] For cyclooxygenase assays, osteosarcoma cells are cultured in 1 mL of media in 24-well multidishes (Nunclon) until confluent (1-2 ×10^5 cells/well). U-937 cells are grown in spinner flasks and resuspended to a final density of 1.5×10^6 cells/mL in 24well multidishes (Nunclon). Following washing and resuspension of osteosarcoma and U-937 cells in 1 mL of HBSS, 1 μL of a DMSO solution of test compound or DMSO vehicle is added, and samples gently mixed. All assays are performed in triplicate. […] AA (peroxide-free, Cayman Chemical) is prepared as a 10 mM stock solution in ethanol and further diluted 10-fold in HBSS. […] Control samples are incubated with ethanol vehicle instead of AA. Samples are again gently mixed and incubated for a further 10 min. at 37° C. For osteosarcoma cells, reactions are then stopped by the addition of 100 μL of 1N HCl, with mixing and by the rapid removal of the solution from cell monolayers. For U-937 cells, reactions are stopped by the addition of 100 μL of 1N HCl, with mixing. Samples are then neutralized by the addition of 100 μL of 1N NaOH and PGE2 levels measured by radioimmunoassay. Assay of COX-1 Activity from U937 cell microsomes U 937 cells are pelleted by centrifugation at 500×g for 5 min and washed once with phosphate-buffered saline and repelleted. Cells are resuspended in homogenization buffer consisting of 0.1M Tris-HCl, pH 7.4, 10 mM EDTA, 2 μg/ml leupeptin, 2 μg/ml soybean trypsin inhibitor, 2 μg/ml aprotinin and 1 mM phenyl methyl sulfonyl fluoride. The cell suspension is sonicated 4 times for 10 sec and is centrifuged at 10,000×g for 10 min at 4° C. The supernatant is centrifuged at 100,000×g for 1 hr at 4° C. The 100,000×g microsomal pellet is resuspended in 0.1M Tris-HCl, pH 7.4, 10 mM EDTA to approximately 7 mg protein/ml and stored at -80° C. […] Assays are performed in duplicate in a final volume of 250 μl. Initially, 5 μl of DMSO vehicle or drug in DMSO are added to 20 μl of 0.1M Tris-HCl buffer, pH 7.4 containing 10 mM EDTA in wells of a 96-deepwell polypropylene titre plate. 200 μl of the microsomal preparation are then added and pre-incubated for 15 min at room temperature before addition of 25 μl of […] arachidonic acid in 0.1M Tris-HCl and 10 mM EDTA, pH 7.4. Samples are incubated for 40 min at room temperature and the reaction is stopped by the addition of 25 μl of 1N HCl. Samples are neutralized with 25 μl of 1N NaOH prior to quantitation of PGE2 content by radioimmunoassay (Dupont-NEN or Amersham assay kits). Cyclooxygenase activity is defined as the difference between PGE2 levels in samples incubated in the presence of arachidonic acid and ethanol vehicle. Compounds of the present invention are inhibitors of COX-2 and are thereby useful in the treatment of COX-2 mediated diseases as enumerated above. The activities of the compounds against cyclooxygenase may be seen in the representative results shown below. In the assay, inhibition is determined by measuring the amount of prostaglandin E2 (PGE2) synthesized in the presence of AA, COX-1 or COX-2 and a putative inhibitor. […]

[3] = test system: carrageenan-induced paw edema in rats; assay: Rat paw edema assay (carrageenan); assay type: in vivo, Male Sprague-Dawley rats; details: po, 1 hr before carrageenan, paw volume 3 hr after
Method: Male Sprague-Dawley rats (150-200 g) are fasted overnight and are given, po, either vehicle (1% methocel or 5% Tween 80) or a test compound. One hr later, a line is drawn using a permanent marker at the level above the ankle in one hind paw to define the area of the paw to be monitored. The paw volume (V0) is measured using a plethysmometer (Ugo-Basile, Italy) based on the principle of water displacement. The animals are then injected subplantarly with 50 μt of 1% carrageenan solution in saline (FMC Corp, Maine) into the paw using an insulin syringe with a 25-gauge needle (i.e. 500 μg carrageenan per paw). Three hr later, the paw volume (V3) is measured and the increases in paw volume (V3 -V0) are calculated. The animals are sacrificed by CO2 asphyxiation and the absence or presence of stomach lesions scored. Data is compared with the vehicle-control values and percent inhibition calculated. All treatment groups are coded to eliminate observer bias.

SMILES	Selectivity Ratio [1]	IC50 [1] [nM]	IC50 [2] [nM]	ED50 [3] [mg/kg]
CS(=O)(=O)c1ccc(C2=C(c3cncc(Cl)c3)C(=O)CC2)cc1 [Example 2, 2-(5-Chloropyridin-3-yl)-3-(4-(methylsulfonyl)phenyl)-2-cyclopenten-1-one]	–	–	> 100000	–
CS(=O)(=O)c1ccc(C2=C(c3cccnc3)C(=O)CC2)cc1 [Example 1, 3-(4-(Methylsulfonyl)phenyl)-2-(3-pyridinyl)-2-cyclopenten-1-one]	52	580	30000	1.7
CS(=O)(=O)c1ccc(C2=C(c3ccc4cccnc4c3)C(=O)OC2)cc1 [C]	1	590	600	–

Continued by falling IC50 [1], values first:

Selectivity Ratio [1]	IC50 [1] [nM]	IC50 [2] [nM]	SMILES	ED50 [3] [mg/kg]
78	460	36000	CS(=O)(=O)c1ccc(C2=C(c3ccc(Cl)cn3)C(=O)CC2)cc1 [Example 10, 2-(5-Chloro-2-pyridinyl)-3-(4-(methylsulfonyl)phenyl)-2-cyclopenten-1-one]	2.5
10	190	1900	CS(=O)(=O)c1ccc(C2=C(c3ccccc3)C(=O)CC2)cc1 [B]	10
5	90	–	CS(=O)(=O)c1ccc(C2=C(c3ccc(F)cc3)C(=O)CC2)cc1 [A]	3
